Test results reported in the supplement of paper PMC10627819.

Experiments:
Assay in all cases: fitness (endpoint OD595 vs no drug) (fraction); higher = more growth
B. subtilis 168 = test system: B. subtilis 168
How it was run: (§1)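 Fitness was measured as bacterial growth in 384-well plates inoculated at OD595 0.01 (30 µl, or 55 µl for S. pneumoniae). Media were TSB, LB Lennox or CY, at 37 °C. OD595 was read every 30 min for 14 h and background-subtracted against the first reading. Fitness is OD595 at the transition into stationary phase divided by the robust mean of no-drug control wells, capped at 1.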

S. aureus Newman = test system: S. aureus Newman
How it was run: as §1

S. pneumoniae D39V = test system: S. pneumoniae D39V
How it was run: as §1

S. aureus DSM 20231 = test system: S. aureus DSM 20231
How it was run: as §1

[1] = first compound 0.125 µg/mL, partner 0.125 µg/mL
[2] = first compound 0.125 µg/mL, partner 0.25 µg/mL
[3] = first compound 0.125 µg/mL, partner 0.5 µg/mL
[4] = first compound 0.25 µg/mL, partner 0.125 µg/mL
[5] = first compound 0.25 µg/mL, partner 0.25 µg/mL
[6] = first compound 0.25 µg/mL, partner 0.5 µg/mL
[7] = first compound 0.5 µg/mL, partner 0.125 µg/mL
[8] = first compound 0.5 µg/mL, partner 0.25 µg/mL
[9] = first compound 0.5 µg/mL, partner 0.5 µg/mL
[10] = first compound 1 µg/mL, partner 0.25 µg/mL, one replicate
[11] = first compound 1 µg/mL, partner 0.5 µg/mL, one replicate
[12] = first compound 0.5 µg/mL, partner 0.0156 µg/mL
[13] = first compound 0.5 µg/mL, partner 0.0312 µg/mL
[14] = first compound 0.5 µg/mL, partner 0.0625 µg/mL
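Also: OD595 on entry to stationary phase over no-drug wells; at most 1.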

CCCCCCCCCC(=O)N[C@@H](Cc1c[nH]c2ccccc12)C(=O)N[C@H](CC(N)=O)C(=O)N[C@@H](CC(=O)O)C(=O)N[C@@H]1C(=O)NCC(=O)N[C@@H](CCCN)C(=O)N[C@@H](CC(=O)O)C(=O)N[C@H](C)C(=O)N[C@@H](CC(=O)O)C(=O)NCC(=O)N[C@H](CO)C(=O)N[C@@H]([C@H](C)CC(=O)O)C(=O)N[C@@H](CC(=O)c2ccccc2N)C(=O)O[C@@H]1C [Daptomycin] + CC1=C(C(=O)O)N2C(=O)[C@@H](NC(=O)[C@H](N)c3ccccc3)[C@H]2SC1 [Cephalexin]
fitness (B. subtilis 168; [1]): 0.897
fitness (B. subtilis 168; [2]): 0.888
fitness (B. subtilis 168; [3]): 0.879
fitness (B. subtilis 168; [4]): 0.879
fitness (B. subtilis 168; [5]): 0.892
fitness (B. subtilis 168; [6]): 0.957
fitness (B. subtilis 168; first compound 0.25 µg/mL, partner 1 µg/mL, one replicate): 0.956
fitness (B. subtilis 168; [7]): 0.872
fitness (B. subtilis 168; [8]): 0.879
fitness (B. subtilis 168; [9]): 0.835
fitness (B. subtilis 168; first compound 0.5 µg/mL, partner 1 µg/mL, one replicate): 0.92
fitness (B. subtilis 168; [10]): 0.763
fitness (B. subtilis 168; [11]): 0.741
fitness (B. subtilis 168; first compound 1 µg/mL, partner 1 µg/mL, one replicate): 0.766
fitness (S. aureus Newman; [2]): 0.956
fitness (S. aureus Newman; [3]): 0.992
fitness (S. aureus Newman; first compound 0.125 µg/mL, partner 1 µg/mL): 0.991
fitness (S. aureus Newman; [5]): 0.962
fitness (S. aureus Newman; [6]): ≥ 1
fitness (S. aureus Newman; first compound 0.25 µg/mL, partner 1 µg/mL): ≥ 1
fitness (S. aureus Newman; [8]): 0.984
fitness (S. aureus Newman; [9]): 0.996
fitness (S. aureus Newman; first compound 0.5 µg/mL, partner 1 µg/mL): ≥ 1
fitness (S. pneumoniae D39V; first compound 1 µg/mL, partner 0.125 µg/mL, one replicate): 0.903
fitness (S. pneumoniae D39V; [10]): 0.898
fitness (S. pneumoniae D39V; [11]): 0.896
fitness (S. pneumoniae D39V; first compound 1 µg/mL, partner 1 µg/mL): 0.452
fitness (S. pneumoniae D39V; first compound 1 µg/mL, partner 2 µg/mL): 0.065
fitness (S. pneumoniae D39V; first compound 1 µg/mL, partner 4 µg/mL): 0.0361
fitness (S. pneumoniae D39V; first compound 2 µg/mL, partner 0.125 µg/mL, one replicate): 0.922
fitness (S. pneumoniae D39V; first compound 2 µg/mL, partner 0.25 µg/mL, one replicate): 0.857
fitness (S. pneumoniae D39V; first compound 2 µg/mL, partner 0.5 µg/mL, one replicate): 0.891
fitness (S. pneumoniae D39V; first compound 2 µg/mL, partner 1 µg/mL): 0.479
fitness (S. pneumoniae D39V; first compound 2 µg/mL, partner 2 µg/mL): 0.0675
fitness (S. pneumoniae D39V; first compound 2 µg/mL, partner 4 µg/mL): 0.0644
fitness (S. pneumoniae D39V; first compound 4 µg/mL, partner 0.125 µg/mL, one replicate): 0.977
fitness (S. pneumoniae D39V; first compound 4 µg/mL, partner 0.25 µg/mL, one replicate): 0.878
fitness (S. pneumoniae D39V; first compound 4 µg/mL, partner 0.5 µg/mL, one replicate): 0.887
fitness (S. pneumoniae D39V; first compound 4 µg/mL, partner 1 µg/mL): 0.449
fitness (S. pneumoniae D39V; first compound 4 µg/mL, partner 2 µg/mL): 0.0521
fitness (S. pneumoniae D39V; first compound 4 µg/mL, partner 4 µg/mL): 0.0719

CCCCCCCCCC(=O)N[C@@H](Cc1c[nH]c2ccccc12)C(=O)N[C@H](CC(N)=O)C(=O)N[C@@H](CC(=O)O)C(=O)N[C@@H]1C(=O)NCC(=O)N[C@@H](CCCN)C(=O)N[C@@H](CC(=O)O)C(=O)N[C@H](C)C(=O)N[C@@H](CC(=O)O)C(=O)NCC(=O)N[C@H](CO)C(=O)N[C@@H]([C@H](C)CC(=O)O)C(=O)N[C@@H](CC(=O)c2ccccc2N)C(=O)O[C@@H]1C [Daptomycin] + CO/N=C(\C(=O)N[C@@H]1C(=O)N2C(C(=O)[O-])=C(C[N+]3(C)CCCC3)CS[C@H]12)c1csc(N)n1 [Cefepime]
fitness (S. aureus DSM 20231; [7]): 0.846
fitness (S. aureus DSM 20231; [8]): 0.88
fitness (S. aureus DSM 20231; [9]): 0.869
fitness (S. aureus DSM 20231; first compound 1 µg/mL, partner 0.125 µg/mL): 0.938
fitness (S. aureus DSM 20231; first compound 1 µg/mL, partner 0.25 µg/mL): 0.89
fitness (S. aureus DSM 20231; first compound 1 µg/mL, partner 0.5 µg/mL): 0.877
fitness (S. aureus DSM 20231; first compound 2 µg/mL, partner 0.125 µg/mL): 0.934
fitness (S. aureus DSM 20231; first compound 2 µg/mL, partner 0.25 µg/mL): 0.887
fitness (S. aureus DSM 20231; first compound 2 µg/mL, partner 0.5 µg/mL): 0.844
fitness (S. aureus Newman; [1]): 0.935
fitness (S. aureus Newman; [2]): 0.854
fitness (S. aureus Newman; [3]): 0.8
fitness (S. aureus Newman; [4]): 0.941
fitness (S. aureus Newman; [5]): 0.874
fitness (S. aureus Newman; [6]): 0.797
fitness (S. aureus Newman; [7]): 0.967
fitness (S. aureus Newman; [8]): 0.874
fitness (S. aureus Newman; [9]): 0.799
fitness (S. pneumoniae D39V; first compound 1 µg/mL, partner 0.007 µg/mL): 0.917
fitness (S. pneumoniae D39V; first compound 1 µg/mL, partner 0.0078 µg/mL): ≥ 1
fitness (S. pneumoniae D39V; first compound 1 µg/mL, partner 0.014 µg/mL): 0.887
fitness (S. pneumoniae D39V; first compound 1 µg/mL, partner 0.0155 µg/mL): 0.982
fitness (S. pneumoniae D39V; first compound 1 µg/mL, partner 0.028 µg/mL): 0.813
fitness (S. pneumoniae D39V; first compound 1 µg/mL, partner 0.031 µg/mL): 0.584
fitness (S. pneumoniae D39V; first compound 2 µg/mL, partner 0.007 µg/mL): 0.942
fitness (S. pneumoniae D39V; first compound 2 µg/mL, partner 0.0078 µg/mL): ≥ 1
fitness (S. pneumoniae D39V; first compound 2 µg/mL, partner 0.014 µg/mL): 0.938
fitness (S. pneumoniae D39V; first compound 2 µg/mL, partner 0.0155 µg/mL): ≥ 1
fitness (S. pneumoniae D39V; first compound 2 µg/mL, partner 0.028 µg/mL): 0.82
fitness (S. pneumoniae D39V; first compound 2 µg/mL, partner 0.031 µg/mL): 0.606
fitness (S. pneumoniae D39V; first compound 4 µg/mL, partner 0.007 µg/mL): 0.476
fitness (S. pneumoniae D39V; first compound 4 µg/mL, partner 0.0078 µg/mL): 0.964
fitness (S. pneumoniae D39V; first compound 4 µg/mL, partner 0.014 µg/mL): 0.57
fitness (S. pneumoniae D39V; first compound 4 µg/mL, partner 0.0155 µg/mL): 0.965
fitness (S. pneumoniae D39V; first compound 4 µg/mL, partner 0.028 µg/mL): 0.48
fitness (S. pneumoniae D39V; first compound 4 µg/mL, partner 0.031 µg/mL): 0.599

CCCCCCCCCC(=O)N[C@@H](Cc1c[nH]c2ccccc12)C(=O)N[C@H](CC(N)=O)C(=O)N[C@@H](CC(=O)O)C(=O)N[C@@H]1C(=O)NCC(=O)N[C@@H](CCCN)C(=O)N[C@@H](CC(=O)O)C(=O)N[C@H](C)C(=O)N[C@@H](CC(=O)O)C(=O)NCC(=O)N[C@H](CO)C(=O)N[C@@H]([C@H](C)CC(=O)O)C(=O)N[C@@H](CC(=O)c2ccccc2N)C(=O)O[C@@H]1C [Daptomycin] + CO[C@@]12[C@H](COC(N)=O)C3=C(C(=O)C(C)=C(N)C3=O)N1C[C@@H]1N[C@@H]12 [Mitomycin C]
fitness (S. aureus DSM 20231; [12]): 0.773
fitness (S. aureus DSM 20231; [13]): 0.791
fitness (S. aureus DSM 20231; [14]): 0.648
fitness (S. aureus DSM 20231; first compound 1 µg/mL, partner 0.0156 µg/mL): 0.809
fitness (S. aureus DSM 20231; first compound 1 µg/mL, partner 0.0312 µg/mL): 0.778
fitness (S. aureus DSM 20231; first compound 1 µg/mL, partner 0.0625 µg/mL): 0.6
fitness (S. aureus DSM 20231; first compound 2 µg/mL, partner 0.0156 µg/mL): 0.769
fitness (S. aureus DSM 20231; first compound 2 µg/mL, partner 0.0312 µg/mL): 0.744
fitness (S. aureus DSM 20231; first compound 2 µg/mL, partner 0.0625 µg/mL): 0.595
fitness (S. aureus Newman; first compound 0.125 µg/mL, partner 0.0156 µg/mL): 0.775
fitness (S. aureus Newman; first compound 0.125 µg/mL, partner 0.0312 µg/mL): 0.702
fitness (S. aureus Newman; first compound 0.125 µg/mL, partner 0.0625 µg/mL): 0.57
fitness (S. aureus Newman; first compound 0.25 µg/mL, partner 0.0156 µg/mL): 0.778
fitness (S. aureus Newman; first compound 0.25 µg/mL, partner 0.0312 µg/mL): 0.692
fitness (S. aureus Newman; first compound 0.25 µg/mL, partner 0.0625 µg/mL): 0.54
fitness (S. aureus Newman; [12]): 0.773
fitness (S. aureus Newman; [13]): 0.688
fitness (S. aureus Newman; [14]): 0.545
fitness (S. pneumoniae D39V; first compound 1 µg/mL, partner 0.001075 µg/mL): 0.897
fitness (S. pneumoniae D39V; first compound 1 µg/mL, partner 0.002 µg/mL): 0.771
fitness (S. pneumoniae D39V; first compound 1 µg/mL, partner 0.00215 µg/mL): 0.849
fitness (S. pneumoniae D39V; first compound 1 µg/mL, partner 0.004 µg/mL): 0.617
fitness (S. pneumoniae D39V; first compound 1 µg/mL, partner 0.0043 µg/mL): 0.719
fitness (S. pneumoniae D39V; first compound 1 µg/mL, partner 0.008 µg/mL): 0.285
fitness (S. pneumoniae D39V; first compound 2 µg/mL, partner 0.001075 µg/mL): 0.905
fitness (S. pneumoniae D39V; first compound 2 µg/mL, partner 0.002 µg/mL): 0.776
fitness (S. pneumoniae D39V; first compound 2 µg/mL, partner 0.00215 µg/mL): 0.841
fitness (S. pneumoniae D39V; first compound 2 µg/mL, partner 0.004 µg/mL): 0.558
fitness (S. pneumoniae D39V; first compound 2 µg/mL, partner 0.0043 µg/mL): 0.723
fitness (S. pneumoniae D39V; first compound 2 µg/mL, partner 0.008 µg/mL): 0.307
fitness (S. pneumoniae D39V; first compound 4 µg/mL, partner 0.001075 µg/mL): 0.94
fitness (S. pneumoniae D39V; first compound 4 µg/mL, partner 0.002 µg/mL): 0.739
fitness (S. pneumoniae D39V; first compound 4 µg/mL, partner 0.00215 µg/mL): 0.842
fitness (S. pneumoniae D39V; first compound 4 µg/mL, partner 0.004 µg/mL): 0.504
fitness (S. pneumoniae D39V; first compound 4 µg/mL, partner 0.0043 µg/mL): 0.723
fitness (S. pneumoniae D39V; first compound 4 µg/mL, partner 0.008 µg/mL): 0.242
